# Measurements taken from PubChem BioAssay AID1963431 (Molecular Pharmacology Branch, DTP, NCI, 2024).
# Tested on: Rh18 complex spheroid viability, percent test/control
# Experiment: Anticancer human tumor Rh18 cell line growth inhibition [Asc];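 note: spheroids exposed to compound for 7 days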;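 for viability, T/C: 100% = DMSO vehicle control wells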
# Conditions: for IC50: curve of first compound; for viability, T/C: stronger effect = lower value
# Procedure, shortened: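 Tumor cells were grown as complex spheroids with human endothelial cells (HUVEC) and human mesenchymal stem cells as stroma. Agents were tested alone and in combination, in half-log steps down from the clinical Cmax, or from 10 microM where Cmax was unknown.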
# [1] = second compound 0.1 µM, first compound 0.0316 µM
# [2] = second compound 0.1 µM, first compound 0.1 µM
# [3] = second compound 0.1 µM, first compound 0.316 µM
# [4] = second compound 0.1 µM, first compound 1 µM
# [5] = second compound 0.1 µM, first compound 3.16 µM
# [6] = second compound 0.1 µM, first compound 10 µM
# [7] = second compound 0.316 µM, first compound 0.0316 µM
# [8] = second compound 0.316 µM, first compound 0.1 µM
# [9] = second compound 0.316 µM, first compound 0.316 µM
# [10] = second compound 0.316 µM, first compound 1 µM
# [11] = second compound 0.316 µM, first compound 3.16 µM
# [12] = second compound 0.316 µM, first compound 10 µM
# [13] = second compound 1 µM, first compound 0.0316 µM
# [14] = second compound 1 µM, first compound 0.1 µM
# [15] = second compound 1 µM, first compound 0.316 µM
# [16] = second compound 1 µM, first compound 1 µM
# [17] = second compound 1 µM, first compound 3.16 µM
# [18] = second compound 1 µM, first compound 10 µM
# [19] = second compound 3.16 µM, first compound 0.0316 µM
# [20] = second compound 3.16 µM, first compound 0.1 µM
# [21] = second compound 3.16 µM, first compound 0.316 µM
# [22] = second compound 3.16 µM, first compound 1 µM
# [23] = second compound 3.16 µM, first compound 3.16 µM
# [24] = second compound 3.16 µM, first compound 10 µM
# [25] = second compound 10 µM, first compound 0.0316 µM
# [26] = second compound 10 µM, first compound 0.1 µM
# [27] = second compound 10 µM, first compound 0.316 µM
# [28] = second compound 10 µM, first compound 1 µM
# [29] = second compound 10 µM, first compound 3.16 µM
# [30] = second compound 10 µM, first compound 10 µM
smiles,measurement,setting,value
C=C(F)C(=O)N1CCN(c2nc(OCC3CCCN3C)nc3c2CCN(c2cccc4cccc(Cl)c24)C3)CC1CC#N (stereo not given) + Cc1c(S(C)(=O)=O)c(-c2cc(F)cc(N3CCN(c4ccc(NS(=O)(=O)c5ccc(NC(CCN6CCC(C(=O)OCCCP(=O)(O)O)CC6)CSc6ccccc6)c(S(=O)(=O)C(F)(F)F)c5)cc4)CC3)c2)c(-c2ccc(Cl)cc2)n1C(C)C,IC50,second compound 0.1 µM,< 31.6 nM
same,IC50,second compound 0.316 µM,< 31.6 nM
same,IC50,second compound 1 µM,< 31.6 nM
same,IC50,second compound 3.16 µM,< 31.6 nM
same,IC50,second compound 10 µM,< 31.6 nM
same,"viability, T/C",[1],13.9%
same,"viability, T/C",[2],14.1%
same,"viability, T/C",[3],16.8%
same,"viability, T/C",[4],18.4%
same,"viability, T/C",[5],4.57%
same,"viability, T/C",[6],0.19%
same,"viability, T/C",[7],6.98%
same,"viability, T/C",[8],8.95%
same,"viability, T/C",[9],10.2%
same,"viability, T/C",[10],10.4%
same,"viability, T/C",[11],1.87%
same,"viability, T/C",[12],0.13%
same,"viability, T/C",[13],7.24%
same,"viability, T/C",[14],8.76%
same,"viability, T/C",[15],10.9%
same,"viability, T/C",[16],8.02%
same,"viability, T/C",[17],0.6%
same,"viability, T/C",[18],0.14%
same,"viability, T/C",[19],7.34%
same,"viability, T/C",[20],7.03%
same,"viability, T/C",[21],8.15%
same,"viability, T/C",[22],4.6%
same,"viability, T/C",[23],0.19%
same,"viability, T/C",[24],0.18%
same,"viability, T/C",[25],4.96%
same,"viability, T/C",[26],5.5%
same,"viability, T/C",[27],5.96%
same,"viability, T/C",[28],4.82%
same,"viability, T/C",[29],0.38%
same,"viability, T/C",[30],0.23%
C=CC(=O)N1CCN(c2nc(=O)n(-c3c(C)ccnc3C(C)C)c3nc(-c4c(O)cccc4F)c(F)cc23)C(C)C1 (stereo not given) + Cc1c(S(C)(=O)=O)c(-c2cc(F)cc(N3CCN(c4ccc(NS(=O)(=O)c5ccc(NC(CCN6CCC(C(=O)OCCCP(=O)(O)O)CC6)CSc6ccccc6)c(S(=O)(=O)C(F)(F)F)c5)cc4)CC3)c2)c(-c2ccc(Cl)cc2)n1C(C)C,IC50,second compound 0.1 µM,< 31.6 nM
same,IC50,second compound 0.316 µM,< 31.6 nM
same,IC50,second compound 1 µM,< 31.6 nM
same,IC50,second compound 3.16 µM,< 31.6 nM
same,IC50,second compound 10 µM,< 31.6 nM
same,"viability, T/C",[1],15.2%
same,"viability, T/C",[2],17%
same,"viability, T/C",[3],15.5%
same,"viability, T/C",[4],19%
same,"viability, T/C",[5],20.8%
same,"viability, T/C",[6],29.2%
same,"viability, T/C",[7],11.4%
same,"viability, T/C",[8],11.5%
same,"viability, T/C",[9],11.4%
same,"viability, T/C",[10],12.6%
same,"viability, T/C",[11],15.1%
same,"viability, T/C",[12],17.5%
same,"viability, T/C",[13],8.27%
same,"viability, T/C",[14],8.47%
same,"viability, T/C",[15],8.62%
same,"viability, T/C",[16],7.63%
same,"viability, T/C",[17],11.4%
same,"viability, T/C",[18],15%
same,"viability, T/C",[19],6.03%
same,"viability, T/C",[20],8.21%
same,"viability, T/C",[21],7.26%
same,"viability, T/C",[22],8.5%
same,"viability, T/C",[23],7.74%
same,"viability, T/C",[24],13.2%
same,"viability, T/C",[25],3.36%
same,"viability, T/C",[26],5.72%
same,"viability, T/C",[27],4.34%
same,"viability, T/C",[28],7.21%
same,"viability, T/C",[29],5.57%
same,"viability, T/C",[30],13%
CCN1C(C(=O)NC23CCC(C(=O)O)(CC2)CC3)C(c2cccc(Cl)c2F)C2(C(=O)Nc3cc(Cl)ccc32)C12CCCCC2 (stereo not given) + Cc1c(S(C)(=O)=O)c(-c2cc(F)cc(N3CCN(c4ccc(NS(=O)(=O)c5ccc(NC(CCN6CCC(C(=O)OCCCP(=O)(O)O)CC6)CSc6ccccc6)c(S(=O)(=O)C(F)(F)F)c5)cc4)CC3)c2)c(-c2ccc(Cl)cc2)n1C(C)C,IC50,second compound 0.1 µM,< 9.49 nM
same,IC50,second compound 0.316 µM,< 9.49 nM
same,IC50,second compound 1 µM,< 9.49 nM
same,IC50,second compound 3.16 µM,< 9.49 nM
same,IC50,second compound 10 µM,< 9.49 nM
same,"viability, T/C","second compound 0.1 µM, first compound 0.00949 µM",19%
same,"viability, T/C","second compound 0.1 µM, first compound 0.03 µM",21%
same,"viability, T/C","second compound 0.1 µM, first compound 0.0949 µM",10.3%
same,"viability, T/C","second compound 0.1 µM, first compound 0.3 µM",6.82%
same,"viability, T/C","second compound 0.1 µM, first compound 0.949 µM",7.29%
same,"viability, T/C","second compound 0.1 µM, first compound 3 µM",3.96%
same,"viability, T/C","second compound 0.316 µM, first compound 0.00949 µM",12%
same,"viability, T/C","second compound 0.316 µM, first compound 0.03 µM",16.4%
same,"viability, T/C","second compound 0.316 µM, first compound 0.0949 µM",7.76%
same,"viability, T/C","second compound 0.316 µM, first compound 0.3 µM",5.97%
same,"viability, T/C","second compound 0.316 µM, first compound 0.949 µM",4.04%
same,"viability, T/C","second compound 0.316 µM, first compound 3 µM",0.91%
same,"viability, T/C","second compound 1 µM, first compound 0.00949 µM",8.76%
same,"viability, T/C","second compound 1 µM, first compound 0.03 µM",8.85%
same,"viability, T/C","second compound 1 µM, first compound 0.0949 µM",5.21%
same,"viability, T/C","second compound 1 µM, first compound 0.3 µM",4.08%
same,"viability, T/C","second compound 1 µM, first compound 0.949 µM",1.55%
same,"viability, T/C","second compound 1 µM, first compound 3 µM",0.87%
same,"viability, T/C","second compound 3.16 µM, first compound 0.00949 µM",6.63%
same,"viability, T/C","second compound 3.16 µM, first compound 0.03 µM",5.76%
same,"viability, T/C","second compound 3.16 µM, first compound 0.0949 µM",4.28%
same,"viability, T/C","second compound 3.16 µM, first compound 0.3 µM",3.45%
same,"viability, T/C","second compound 3.16 µM, first compound 0.949 µM",0.93%
same,"viability, T/C","second compound 3.16 µM, first compound 3 µM",0.73%
same,"viability, T/C","second compound 10 µM, first compound 0.00949 µM",5.47%
same,"viability, T/C","second compound 10 µM, first compound 0.03 µM",3.7%
same,"viability, T/C","second compound 10 µM, first compound 0.0949 µM",2.69%
same,"viability, T/C","second compound 10 µM, first compound 0.3 µM",1.52%
same,"viability, T/C","second compound 10 µM, first compound 0.949 µM",0.64%
same,"viability, T/C","second compound 10 µM, first compound 3 µM",0.73%
CNC(C)C(=O)NC1CN(S(=O)(=O)c2cccc(S(=O)(=O)N3CCC4CCC(C(=O)NC(c5ccccc5)c5ccccc5)N4C(=O)C(NC(=O)C(C)NC)C3)c2)CCC2CCC(C(=O)NC(c3ccccc3)c3ccccc3)N2C1=O (stereo not given) + Cc1c(S(C)(=O)=O)c(-c2cc(F)cc(N3CCN(c4ccc(NS(=O)(=O)c5ccc(NC(CCN6CCC(C(=O)OCCCP(=O)(O)O)CC6)CSc6ccccc6)c(S(=O)(=O)C(F)(F)F)c5)cc4)CC3)c2)c(-c2ccc(Cl)cc2)n1C(C)C,IC50,second compound 0.1 µM,< 3.16 nM
same,IC50,second compound 0.316 µM,< 3.16 nM
same,IC50,second compound 1 µM,< 3.16 nM
same,IC50,second compound 3.16 µM,< 3.16 nM
same,IC50,second compound 10 µM,< 3.16 nM
same,"viability, T/C","second compound 0.1 µM, first compound 0.00316 µM",11.9%
same,"viability, T/C","second compound 0.1 µM, first compound 0.01 µM",9.77%
same,"viability, T/C",[1],7.82%
same,"viability, T/C",[2],7.58%
same,"viability, T/C",[3],5.36%
same,"viability, T/C",[4],6.51%
same,"viability, T/C","second compound 0.316 µM, first compound 0.00316 µM",8.42%
same,"viability, T/C","second compound 0.316 µM, first compound 0.01 µM",7.07%
same,"viability, T/C",[7],8.09%
same,"viability, T/C",[8],5.52%
same,"viability, T/C",[9],3.69%
same,"viability, T/C",[10],5.21%
same,"viability, T/C","second compound 1 µM, first compound 0.00316 µM",7.09%
same,"viability, T/C","second compound 1 µM, first compound 0.01 µM",5.98%
same,"viability, T/C",[13],4.86%
same,"viability, T/C",[14],4.96%
same,"viability, T/C",[15],4.99%
same,"viability, T/C",[16],4.12%
same,"viability, T/C","second compound 3.16 µM, first compound 0.00316 µM",4.15%
same,"viability, T/C","second compound 3.16 µM, first compound 0.01 µM",4.41%
same,"viability, T/C",[19],3.7%
same,"viability, T/C",[20],4.89%
same,"viability, T/C",[21],2.21%
same,"viability, T/C",[22],3.61%
same,"viability, T/C","second compound 10 µM, first compound 0.00316 µM",5.31%
same,"viability, T/C","second compound 10 µM, first compound 0.01 µM",4.19%
same,"viability, T/C",[25],2.98%
same,"viability, T/C",[26],3.4%
same,"viability, T/C",[27],2.94%
same,"viability, T/C",[28],2.34%
